Reference: the supplement of paper PMC4862054
Several values for one entry are separate records, joined by “and”; a condition that tells them apart may be missing. Equal values may be shown once.

What was measured:
Conditions in all cases: incubation time: 72 h
DU-4475 [1] = assay: normalised response (% of control), CellTox Green; higher = less cell death (100 = DMSO, 0 = benzethonium chloride kill control)
In short: (§1)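 Two readouts were taken after 72 h: CellTox Green fluorescence (485/520 nm) first, then CellTiter-Glo luminescence after 10 min at room temperature. Breast cancer cell lines had been seeded as 20 µl suspension into 384-well plates holding compound at 5 concentrations in 10-fold steps across a compound-specific 10,000-fold range. Each value is a normalised signal at a single concentration, with plates scaled to 0.1 % DMSO (100) and a positive kill control (0).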

HCC1937 = assay: as above
In short: as §1

MDA-MB-468 = assay: as above
In short: as §1

MDA-MB-436 = assay: as above
In short: as §1

MFM-223 = assay: as above
In short: as §1

CAL-148 [2] = assay: as above
In short: as §1

Hs578T = assay: as above
In short: as §1

CAL-51 [3] = assay: as above
In short: as §1

CAL-85-1 [4] = assay: as above
In short: as §1

HDQ-P1 [5] = assay: as above
In short: as §1

HCC1143 = assay: as above
In short: as §1

CAL-120 = assay: as above
In short: as §1

MDA-MB-453 [6] = assay: as above
In short: as §1

DU-4475 [7] = assay: normalised viability (% of control), CellTiter-Blue; higher = more viable cells (about 100 = DMSO control)
Procedure: (§2)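 DSRT, CellTiter-Blue viability, 72 h incubation. Signal is normalised to DMSO and benzethonium chloride controls. Value is the normalised response at dose 7.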

CAL-148 [8] = assay: as above
Procedure: as §2

CAL-51 [9] = assay: as above
Procedure: as §2

CAL-85-1 [10] = assay: as above
Procedure: as §2

HDQ-P1 [11] = assay: as above
Procedure: as §2

MDA-MB-453 [12] = assay: as above
Procedure: as §2

CO[C@H]1C[C@@H]2CC[C@@H](C)[C@@](O)(O2)C(=O)C(=O)N2CCCC[C@H]2C(=O)O[C@H]([C@H](C)C[C@@H]2CC[C@@H](O)[C@H](OC)C2)CC(=O)[C@H](C)/C=C(\C)[C@@H](O)[C@@H](OC)C(=O)[C@H](C)C[C@H](C)/C=C/C=C/C=C/1C [Sirolimus] (100 nM)
normalised response (DU-4475 [1]): 98.5% | normalised response (HCC1937): 49.5% | normalised response (MDA-MB-468): 141% | normalised response (MDA-MB-436): 94.5% | normalised response (MFM-223): 103% | normalised response (CAL-148 [2]): 94.4% | normalised response (Hs578T): 106% | normalised response (CAL-51 [3]): 99.1% | normalised response (CAL-85-1 [4]): 110% | normalised response (HDQ-P1 [5]): 108% | normalised response (HCC1143): 101% | normalised response (CAL-120): 106% | normalised response (MDA-MB-453 [6]): 106% | normalised viability (DU-4475 [7]): 56.5% | normalised viability (CAL-148 [8]): 48.1% | normalised viability (CAL-51 [9]): 29.2% | normalised viability (CAL-85-1 [10]): 52.6% | normalised viability (HDQ-P1 [11]): 70.6% | normalised viability (MDA-MB-453 [12]): 27.9%

CN1CCN(c2nc(C3=C(c4c[nH]c5ccccc45)C(=O)NC3=O)c3ccccc3n2)CC1 [Sotrastaurin] (1000 nM)
normalised response (DU-4475 [1]): 99.8% | normalised response (HCC1937): 108% | normalised response (MDA-MB-468): 215% | normalised response (MDA-MB-436): 102% | normalised response (MFM-223): 102% | normalised response (CAL-148 [2]): 58.2% | normalised response (Hs578T): 105% | normalised response (CAL-51 [3]): 105% | normalised response (CAL-85-1 [4]): 106% | normalised response (HDQ-P1 [5]): 66.9% | normalised response (HCC1143): 58.9% | normalised response (CAL-120): 102% | normalised response (MDA-MB-453 [6]): 105% | normalised viability (DU-4475 [7]): 95.8% | normalised viability (CAL-148 [8]): 111% | normalised viability (CAL-51 [9]): 74.3% | normalised viability (CAL-85-1 [10]): 124% | normalised viability (HDQ-P1 [11]): 100% | normalised viability (MDA-MB-453 [12]): 89.7%

CCCCCOC(=O)Nc1nc(=O)n([C@@H]2O[C@H](C)[C@@H](O)[C@H]2O)cc1F [Capecitabine] (1000 nM)
normalised response (DU-4475 [1]): 99.2% | normalised response (HCC1937): 71.6% | normalised response (MDA-MB-436): 100% | normalised response (MFM-223): 99.4% | normalised response (CAL-148 [2]): 76.8% | normalised response (Hs578T): 71.7% | normalised response (CAL-51 [3]): 113% | normalised response (CAL-85-1 [4]): 109% | normalised response (HDQ-P1 [5]): 110% | normalised response (HCC1143): 109% | normalised response (CAL-120): 102% | normalised response (MDA-MB-453 [6]): 103% | normalised viability (DU-4475 [7]): 87.4% and 85.9% | normalised viability (CAL-148 [8]): 105% and 102% | normalised viability (CAL-51 [9]): 106% and 104% | normalised viability (CAL-85-1 [10]): 79.7% and 96.2% | normalised viability (MDA-MB-453 [12]): 86.8% and 94.9%

O=C(c1cc(Cc2n[nH]c(=O)c3ccccc23)ccc1F)N1CCN(C(=O)C2CC2)CC1 [Olaparib] (1000 nM)
normalised response (DU-4475 [1]): 99.7% | normalised response (HCC1937): 109% | normalised response (MDA-MB-468): 122% | normalised response (MDA-MB-436): 60.6% | normalised response (CAL-148 [2]): 92.9% | normalised response (Hs578T): 83.4% | normalised response (CAL-51 [3]): 89.5% | normalised response (CAL-85-1 [4]): 102% | normalised response (HDQ-P1 [5]): 71.5% | normalised response (HCC1143): 93.3% | normalised response (CAL-120): 97% | normalised response (MDA-MB-453 [6]): 112% | normalised viability (DU-4475 [7]): 81.1% | normalised viability (CAL-148 [8]): 84.3% | normalised viability (CAL-51 [9]): 88.6% | normalised viability (CAL-85-1 [10]): 85.8% | normalised viability (HDQ-P1 [11]): 104% | normalised viability (MDA-MB-453 [12]): 79.4%

COc1cc2c(N3CCN(C(=O)Nc4ccc(OC(C)C)cc4)CC3)ncnc2cc1OCCCN1CCCCC1 [Tandutinib] (100 nM)
normalised response (DU-4475 [1]): 98% | normalised response (HCC1937): 112% | normalised response (MDA-MB-468): 134% | normalised response (MDA-MB-436): 94.2% | normalised response (MFM-223): 100% | normalised response (CAL-148 [2]): 100% | normalised response (Hs578T): 91.6% | normalised response (CAL-51 [3]): 96.4% | normalised response (CAL-85-1 [4]): 110% | normalised response (HCC1143): 93.2% | normalised response (CAL-120): 97.3% | normalised response (MDA-MB-453 [6]): 106% | normalised viability (DU-4475 [7]): 117% | normalised viability (CAL-148 [8]): 101% | normalised viability (CAL-51 [9]): 107% | normalised viability (CAL-85-1 [10]): 100% | normalised viability (HDQ-P1 [11]): 112% | normalised viability (MDA-MB-453 [12]): 97.6%
